Test results: patent US20080312255A1 (ASTRAZENECA AB, priority 2007, published 2008)

Biological target: S. aureus GyrB ATPase (Staphylococcus aureus, UniProt P0A0K8)
Assay: S. aureus GyrB ATPase inhibition (ammonium molybdate/malachite green phosphate detection)
Format: biochemical
Conditions: for inhibition at 1 µM: compound concentration of 1 μM
Method: S. aureus GyrB ATPase Inhibition Activity: Compounds may be tested for inhibition of S. aureus GyrB ATPase activity using an ammonium molybdate/malachite green-based phosphate detection assay (Lanzetta, P. A., L. J. Alvarez, P. S. Reinach, and O. A. Candia, 1979, 100: 95-97). Assays can be performed in multiwell plates in 30 μl reactions containing: 50 mM Hepes buffer pH 7.5, 75 mM ammonium acetate, 8.0 mM magnesium chloride, 0.5 mM ethylenediaminetetraacetic acid, 5% glycerol, 1.0 mM 1,4-Dithio-DL-threitol, 200 nM bovine serum albumin, 1.0 μg/ml sheared salmon sperm DNA, 250 pM E. coli GyrA, 250 pM S. aureus GyrB, 250 μM ATP, and compound in dimethylsulfoxide. Reactions can be quenched with […] of ammonium molybdate/malachite green detection reagent containing 1.2 mM malachite green hydrochloride, 8.5 mM ammonium molybdate tetrahydrate, and 1 M hydrochloric acid. Plates can be read in an absorbance plate reader at 650 nm and percent inhibition values can be calculated using dimethylsulfoxide (2%)-containing reactions as 0% inhibition and EDTA-containing ([…]) reactions as 100% inhibition controls. An IC50 measurement of compound potency for each compound can be determined from reactions performed in the presence of 10 different compound concentrations.
Compounds of the invention were tested in an assay substantially similar to the assay described above for measuring the inhibition of S. aureus GyrB ATPase. Percent inhibition of S. aureus GyrB ATPase at a compound concentration of 1 μM (unless otherwise noted) is disclosed in the following table: […]

Sequence of S. aureus GyrB ATPase (P0AES4 whole entry): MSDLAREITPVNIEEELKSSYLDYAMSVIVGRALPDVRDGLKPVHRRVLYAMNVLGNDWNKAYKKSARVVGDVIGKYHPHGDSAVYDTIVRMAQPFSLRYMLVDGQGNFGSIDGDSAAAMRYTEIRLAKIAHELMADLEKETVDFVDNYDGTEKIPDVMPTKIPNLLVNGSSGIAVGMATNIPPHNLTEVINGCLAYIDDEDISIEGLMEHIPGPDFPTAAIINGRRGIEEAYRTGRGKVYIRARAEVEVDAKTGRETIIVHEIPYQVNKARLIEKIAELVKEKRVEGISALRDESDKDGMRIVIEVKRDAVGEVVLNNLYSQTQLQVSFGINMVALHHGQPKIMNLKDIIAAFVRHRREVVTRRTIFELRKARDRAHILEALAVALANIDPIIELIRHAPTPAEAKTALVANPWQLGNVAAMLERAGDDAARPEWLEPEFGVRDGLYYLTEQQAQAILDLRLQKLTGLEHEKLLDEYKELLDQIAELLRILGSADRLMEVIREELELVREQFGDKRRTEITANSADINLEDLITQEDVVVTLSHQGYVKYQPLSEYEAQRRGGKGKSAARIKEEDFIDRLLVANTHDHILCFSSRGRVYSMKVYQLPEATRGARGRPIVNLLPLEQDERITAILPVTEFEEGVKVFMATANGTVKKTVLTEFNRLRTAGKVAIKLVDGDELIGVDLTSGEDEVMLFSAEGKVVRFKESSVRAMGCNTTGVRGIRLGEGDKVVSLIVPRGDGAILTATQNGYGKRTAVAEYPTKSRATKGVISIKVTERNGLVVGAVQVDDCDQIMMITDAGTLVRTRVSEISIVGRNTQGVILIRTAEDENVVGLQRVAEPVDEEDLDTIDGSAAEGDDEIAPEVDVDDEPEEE
Sequence of S. aureus GyrB ATPase (P0A0K8 whole entry): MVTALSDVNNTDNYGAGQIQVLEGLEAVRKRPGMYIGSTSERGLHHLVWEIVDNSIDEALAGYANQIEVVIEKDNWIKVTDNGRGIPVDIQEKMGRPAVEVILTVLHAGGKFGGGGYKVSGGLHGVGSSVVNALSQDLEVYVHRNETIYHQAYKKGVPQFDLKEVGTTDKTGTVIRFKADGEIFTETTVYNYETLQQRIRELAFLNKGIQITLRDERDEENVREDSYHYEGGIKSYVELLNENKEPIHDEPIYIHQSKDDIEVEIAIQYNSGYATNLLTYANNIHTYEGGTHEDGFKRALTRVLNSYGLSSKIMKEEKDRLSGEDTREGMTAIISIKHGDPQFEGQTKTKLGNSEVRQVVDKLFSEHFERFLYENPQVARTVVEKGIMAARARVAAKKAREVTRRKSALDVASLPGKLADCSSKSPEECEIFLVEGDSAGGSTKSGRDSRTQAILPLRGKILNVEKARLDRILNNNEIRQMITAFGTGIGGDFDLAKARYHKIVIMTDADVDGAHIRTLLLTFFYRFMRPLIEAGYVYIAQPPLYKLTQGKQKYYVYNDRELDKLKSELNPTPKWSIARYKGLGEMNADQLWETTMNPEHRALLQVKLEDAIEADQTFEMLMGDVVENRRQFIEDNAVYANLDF

SMILES | inhibition at 1 µM | inhibition at 5 µM (compound tested at a concentration of 5 μM)
COCCn1ccnc1-c1nc(N2CC[C@@H](NC(=O)c3cc(Cl)c(C)[nH]3)[C@@H](OCc3ccccc3)C2)sc1C(=O)O [Example 148, 2-[(3S,4R)-3-(benzyloxy)-4-{[(4-chloro-5-methyl-1H-pyrrol-2-yl)carbonyl]amino}piperidin-1-yl]-4-[1-(2-methoxyethyl)-1H-imidazol-2-yl]-1,3-thiazole-5-carboxylic acid] | 99.9% | 
Cc1[nH]c(C(=O)N[C@@H]2CCN(c3nc(-c4csc(N(C)C)n4)c(C(=O)O)s3)C[C@@H]2F)c(Cl)c1Cl [Example 38, 2-((3S,4R)-4-{[(3,4-Dichloro-5-methyl-1H-pyrrol-2-yl)carbonyl]amino}-3-fluoropiperidin-1-yl)-2′-(dimethylamino)-4,4′-bi-1,3-thiazole-5-carboxylic acid] | 97.3% | 
COC(=O)c1sc(N2CC[C@@H](NC(=O)c3[nH]c(C)c(Cl)c3Cl)[C@@H](F)C2)nc1-c1ccn[nH]1 [Example 63] | 99.8% | 
CCOC(=O)c1sc(N2CC[C@@H](NC(=O)c3[nH]c(C)c(Cl)c3C#N)[C@@H](OC)C2)nc1-c1ncccc1F [Example 106, ethyl 2-((3S,4R)-4-(4-chloro-3-cyano-5-methyl-1H-pyrrole-2-carboxamido)-3-methoxypiperidin-1-yl)-4-(3-fluoropyridin-2-yl)thiazole-5-carboxylate] | 101% | 
COC(=O)c1sc(N2CC[C@@H](NC(=O)c3[nH]c(C)c(Cl)c3Cl)[C@@H](F)C2)nc1-c1ncnn1C [Example 67] | 75.2% | 
CO[C@H]1CN(c2nc(-c3cnccn3)c(C(=O)O)s2)CC[C@H]1NC(=O)c1[nH]c(C)c(Cl)c1Cl [Example 12, 2-((3S,4R)-4-{[(3,4-Dichloro-5-methyl-1H-pyrrol-2-yl)carbonyl]amino}-3-methoxypiperidin-1-yl)-4-pyrazin-2-yl-1,3-thiazole-5-carboxylic acid] | 105% | 
Cc1[nH]c(C(=O)N[C@@H]2CCN(c3nc(-c4cn(C)nn4)c(C(=O)O)s3)C[C@@H]2F)c(Cl)c1Cl [Example 116, 2-((3S,4R)-4-(3,4-dichloro-5-methyl-1H-pyrrole-2-carboxamido)-3-fluoropiperidin-1-yl)-4-(1-methyl-1H-1,2,3-triazol-4-yl)thiazole-5-carboxylic acid] | 101% | 
CCOC(=O)c1sc(N2CC[C@@H](NC(=O)c3[nH]c(C)c(Cl)c3Cl)[C@@H](OC)C2)nc1-c1cnc(C)cn1 [Example 96, ethyl 2-((3S,4R)-4-(3,4-dichloro-5-methyl-1H-pyrrole-2-carboxamido)-3-methoxypiperidin-1-yl)-4-(5-methylpyrazin-2-yl)thiazole-5-carboxylate] | 90.2% | 
COC(=O)c1sc(N2CC[C@@H](NC(=O)c3[nH]c(C)c(Cl)c3Cl)[C@@H](F)C2)nc1-c1nccn1C [Example 79] | 101% | 
COCn1ccnc1-c1nc(N2CC[C@@H](NC(=O)c3[nH]c(C)c(Cl)c3Cl)[C@@H](F)C2)sc1C(=O)OC [Example 59] | 100% | 
COC(=O)c1sc(N2CC[C@@H](NC(=O)c3cc(C#N)c(C)[nH]3)[C@@H](OC)C2)nc1-c1ncnn1C [Example 68] | 97% | 
COc1cccc(-c2nc(N3CC[C@@H](NC(=O)c4[nH]c(C)c(Cl)c4Cl)[C@@H](OC)C3)sc2C(=O)O)n1 [Example 111, 2-((3S,4R)-4-(3,4-dichloro-5-methyl-1H-pyrrole-2-carboxamido)-3-methoxypiperidin-1-yl)-4-(6-methoxypyridin-2-yl)thiazole-5-carboxylic acid] | 105% | 
CCOC(=O)c1sc(N2CC[C@@H](NC(=O)c3[nH]c(C)c(Cl)c3Cl)[C@@H](OC)C2)nc1-c1nc2ccccc2s1 [Example 54] | 97.8% | 
CCOC(=O)c1sc(N2CC[C@@H](NC(=O)c3[nH]c(C)c(Cl)c3Cl)[C@@H](F)C2)nc1-c1cc(OC)ccn1 [Example 98, Ethyl 2-((3S,4R)-4-(3,4-dichloro-5-methyl-1H-pyrrole-2-carboxamido)-3-fluoropiperidin-1-yl)-4-(4-methoxypyridin-2-yl)thiazole-5-carboxylate] | 84.4% | 
Cc1[nH]c(C(=O)N[C@@H]2CCN(c3nc(-c4nccs4)c(C(=O)O)s3)C[C@@H]2F)c(Cl)c1Cl [Example 6, 2′-((3S,4R)-4-{[(3,4-Dichloro-5-methyl-1H-pyrrol-2-yl)carbonyl]amino}-3-fluoropiperidin-1-yl)-2,4′-bi-1,3-thiazole-5′-carboxylic acid] | 99.9% | 
COC(=O)c1sc(N2CC[C@@H](NC(=O)c3[nH]c(C)c(Cl)c3Cl)[C@@H](F)C2)nc1-c1cccc(OC)n1 [Example 100, methyl 2-((3S,4R)-4-(3,4-dichloro-5-methyl-1H-pyrrole-2-carboxamido)-3-fluoropiperidin-1-yl)-4-(6-methoxypyridin-2-yl)thiazole-5-carboxylate] | 112% | 
Cc1[nH]c(C(=O)N[C@@H]2CCN(c3nc(-c4cnccn4)c(C(=O)O)s3)C[C@@H]2OCc2ccccc2)c(Cl)c1Cl [Example 145, 2-[(3S,4R)-3-(benzyloxy)-4-{[(3,4-dichloro-5-methyl-1H-pyrrol-2-yl)carbonyl]amino}piperidin-1-yl]-4-(pyrazin-2-yl)-1,3-thiazole-5-carboxylic acid] | 113% | 
COCCn1ccnc1-c1nc(N2CC[C@@H](NC(=O)c3[nH]c(C)c(Cl)c3C#N)[C@@H](OCc3ccccc3)C2)sc1C(=O)O [Example 153] | 98.6% | 
CCCO[C@H]1CN(c2nc(-c3cnccn3)c(C(=O)O)s2)CC[C@H]1NC(=O)c1[nH]c(C)c(Cl)c1Cl [Example 161, 2-[(3S,4R)-4-{[(3,4-dichloro-5-methyl-1H-pyrrol-2-yl)carbonyl]amino}-3-propoxypiperidin-1-yl]-4-(pyrazin-2-yl)-1,3-thiazole-5-carboxylic acid] |  | 14%
COC(=O)c1sc(N2CC[C@@H](NC(=O)c3[nH]c(C)c(Cl)c3Cl)[C@@H](OC)C2)nc1-c1ncc[nH]1 [Example 86, Methyl 2-((3S,4R)-4-{[(3,4-dichloro-5-methyl-1H-pyrrol-2-yl)carbonyl]amino}-3-methoxypiperidin-1-yl)-4-(1H-imidazol-2-yl)-1,3-thiazole-5-carboxylate] | 99.9% | 
CO[C@H]1CN(c2nc(-c3ccccn3)c(C(=O)O)s2)CC[C@H]1NC(=O)c1[nH]c(C)c(Cl)c1Cl [Example 7, 2-((3S,4R)-4-{[(3,4-Dichloro-5-methyl-1H-pyrrol-2-yl)carbonyl]amino}-3-methoxypiperidin-1-yl)-4-pyridin-2-yl-1,3-thiazole-5-carboxylic acid] | 97.1% | 
Cc1[nH]c(C(=O)N[C@@H]2CCN(c3nc(-c4nccn4C)c(C(=O)O)s3)C[C@@H]2F)c(Cl)c1Cl [Example 39, 2-((3S,4R)-4-{[(3,4-Dichloro-5-methyl-1H-pyrrol-2-yl)carbonyl]amino}-3-fluoropiperidin-1-yl)-4-(1-methyl-1H-imidazol-2-yl)-1,3-thiazole-5-carboxylic acid] | 101% | 
COc1cccc(-c2nc(N3CC[C@@H](NC(=O)c4[nH]c(C)c(Cl)c4Cl)[C@@H](F)C3)sc2C(=O)O)n1 [Example 117, 2-((3S,4R)-4-(3,4-dichloro-5-methyl-1H-pyrrole-2-carboxamido)-3-fluoropiperidin-1-yl)-4-(6-methoxypyridin-2-yl)thiazole-5-carboxylic acid] | 108% | 
Cc1[nH]c(C(=O)N[C@@H]2CCN(c3nc(-c4ncc[nH]4)c(C(=O)O)s3)C[C@@H]2F)c(Cl)c1Cl [Example 20, 2-((3S,4R)-4-{[(3,4-Dichloro-5-methyl-1H-pyrrol-2-yl)carbonyl]amino}-3-fluoropiperidin-1-yl)-4-(1H-imidazol-2-yl)-1,3-thiazole-5-carboxylic acid] | 98.6% | 
CO[C@H]1CN(c2nc(-c3cn(C)nn3)c(C(=O)O)s2)CC[C@H]1NC(=O)c1[nH]c(C)c(Cl)c1C#N [Example 120, 2-((3S,4R)-4-(4-chloro-3-cyano-5-methyl-1H-pyrrole-2-carboxamido)-3-methoxypiperidin-1-yl)-4-(1-methyl-1H-1,2,3-triazol-4-yl)thiazole-5-carboxylic acid] | 104% | 
Cc1[nH]c(C(=O)N[C@@H]2CCN(c3nc(-c4ncccc4F)c(C(=O)O)s3)C[C@@H]2OCc2ccccc2)c(C#N)c1Cl [Example 154, 2-[(3S,4R)-3-(benzyloxy)-4-{[(4-chloro-3-cyano-5-methyl-1H-pyrrol-2-yl)carbonyl]amino}piperidin-1-yl]-4-(3-fluoropyridin-2-yl)-1,3-thiazole-5-carboxylic acid] | 112% | 
CCOC(=O)c1sc(N2CC[C@@H](NC(=O)c3[nH]c(C)c(Cl)c3Cl)[C@@H](F)C2)nc1-c1ncccn1 [Example 45] | 100% | 
CNc1nc(-c2nc(N3CC[C@@H](NC(=O)c4[nH]c(C)c(Cl)c4Cl)[C@@H](OC)C3)sc2C(=O)OC)cs1 [Example 72] | 101% | 
